Assay results reported in ChEMBL document CHEMBL5729684, “Pharmaceutical compounds” (2023).

assay: Plaque Reduction Assay: Hep-G2 cells (ECACC, 85011430) were passaged in flasks and seeded in 24-well plates in DMEM containing antibiotics and supplemented with 10% FBS. During inoculation and subsequent incubation, cells were cultured in DMEM containing 2% FBS. 100 plaque forming unit/well of RSV (RSV A2 ECACC, 0709161v) was mixed with eight serial dilutions of compound. Subsequently, 100 μL of the virus/compound mixtures was added to confluent Hep-G2 cell monolayers. The cells and virus/compound mixtures were incubated at 37° C. in a humidified 5% CO2 incubator for 2 h prior to removal of the inoculum and addition of 1 mL of overlay (DMEM containing 2% FBS and 0.8% CMC) containing compound dilutions. The cells and were incubated at 37° C. in a humidified 5% CO2 incubator for 2 days.Cells were washed with PBS before adding 75/25% […] EtOH/MeOH, for 3 min. Fixative was removed and plates were washed with PBS. A pre-titrated amount of the primary antibody was added in 200 μL PBS/2% milk powder, and plates incubated for 90 min at 37° C. The plates were washed 3 times with PBS/0.05% Tween20 before addition of rabbit anti-goat horse radish peroxidase in 200 μL PBS/2% milk powder, and incubated for 1 h at 37° C. Following three wash steps with PBS/0.05% Tween20, 200 μL ready-to-use TrueBlue was added and plates were incubated at rt for 10-15 min before washing with water. After removal of water, plates were air-dried in the dark.Plates were scanned and analysed using the Immunospot S6 Macro analyser, which is equipped with BioSpot analysis software for counting immunostained plaques (virospots). Plaque counts were used to calculate % c infection relative to the mean of the plaque count in the virus control wells for RSV. The EC50 value was calculated as 50% reduction in signal, respectively, by interpolation of inhibition curves fitted with a 4-parameter nonlinear regression with a variable slope in Dotmatics.; conditions: HepG2

SMILES | EC50 [µM]
Cc1nc(NC(C)C)ccc1-c1nn2cccnc2c1C(=O)N[C@H]1N=C(c2ccccc2)c2ccccc2NC1=O | 0.041
Cc1ccnc2c(C(=O)N[C@H]3N=C(c4ccccc4)c4cccc(F)c4NC3=O)c(-c3ccccc3F)nn12 | 0.027
O=C(N[C@H]1N=C(c2ccccc2)c2cccc(F)c2NC1=O)c1c(-c2ccccc2)nn2cccnc12 | 0.09
Cc1cc(NC(C)C)ncc1-c1nn2cccnc2c1C(=O)N[C@H]1N=C(c2ccccc2)c2cccc(F)c2NC1=O | 0.074
Cc1nc(NC(C)C)ccc1-c1nn2cccnc2c1C(=O)N[C@H]1N=C(c2ccccc2)c2cccc(F)c2NC1=O | 0.025
